Reference: the supplement of paper PMC10307832

Key:
Test in all cases: relative viability (nuclei count vs DMSO), 5 days (fraction); higher = more cells survive
Pazopanib + Decitabine = compound: Cc1ccc(Nc2nccc(N(C)c3ccc4c(C)n(C)nc4c3)n2)cc1S(N)(=O)=O [Pazopanib] + Nc1ncn([C@H]2C[C@H](O)[C@@H](CO)O2)c(=O)n1 [Decitabine] (partner 2 µM)
In short: (§1)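 Each reported value is a median over duplicate plates. It expresses relative viability: treated-well nuclei count divided by vehicle-well nuclei count. Lung cancer cell lines in 1536-well plates were dosed by pin tool a day after seeding, alone with one drug or with a fixed anchor-drug dose plus five library-drug doses (not always all listed) in √10 steps, and nuclei were counted after 5 days.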

Pazopanib + Lapatinib = compound: Cc1ccc(Nc2nccc(N(C)c3ccc4c(C)n(C)nc4c3)n2)cc1S(N)(=O)=O [Pazopanib] + CS(=O)(=O)CCNCc1ccc(-c2ccc3ncnc(Nc4ccc(OCc5cccc(F)c5)c(Cl)c4)c3c2)o1 [Lapatinib] (partner 2 µM)
In short: as §1

Pazopanib + Trametinib = compound: Cc1ccc(Nc2nccc(N(C)c3ccc4c(C)n(C)nc4c3)n2)cc1S(N)(=O)=O [Pazopanib] + CC(=O)Nc1cccc(-n2c(=O)n(C3CC3)c(=O)c3c(Nc4ccc(I)cc4F)n(C)c(=O)c(C)c32)c1 [Trametinib] (partner 0.02 µM)
In short: as §1

Ponatinib + Pemetrexed = compound: Cc1ccc(C(=O)Nc2ccc(CN3CCN(C)CC3)c(C(F)(F)F)c2)cc1C#Cc1cnc2cccnn12 [Ponatinib] + Nc1nc2[nH]cc(CCc3ccc(C(=O)N[C@@H](CCC(=O)O)C(=O)O)cc3)c2c(=O)[nH]1 [Pemetrexed] (partner 0.2 µM)
In short: as §1

Question: What does the source list for UMC-11?
Answer: relative viability (Pazopanib + Decitabine; first compound 0.01 µM): 0.598; relative viability (Pazopanib + Decitabine; first compound 0.03162 µM): 0.686; relative viability (Pazopanib + Decitabine; first compound 0.1 µM): 0.616; relative viability (Pazopanib + Decitabine; first compound 0.3162 µM): 0.578; relative viability (Pazopanib + Decitabine; first compound 1 µM): 0.49; relative viability (Pazopanib + Lapatinib; first compound 0.01 µM): 0.807; relative viability (Pazopanib + Lapatinib; first compound 0.03162 µM): 1.03; relative viability (Pazopanib + Lapatinib; first compound 0.1 µM): 0.939; relative viability (Pazopanib + Lapatinib; first compound 0.3162 µM): 1.01; relative viability (Pazopanib + Lapatinib; first compound 1 µM): 1.12; relative viability (Pazopanib + Trametinib; first compound 0.01 µM): 0.552; relative viability (Pazopanib + Trametinib; first compound 0.03162 µM): 0.732; relative viability (Pazopanib + Trametinib; first compound 0.1 µM): 0.672; relative viability (Pazopanib + Trametinib; first compound 0.3162 µM): 0.756; relative viability (Pazopanib + Trametinib; first compound 1 µM): 0.846; relative viability (Ponatinib + Pemetrexed; first compound 0.002 µM): 0.794; relative viability (Ponatinib + Pemetrexed; first compound 0.006325 µM): 0.821; relative viability (Ponatinib + Pemetrexed; first compound 0.06325 µM): 0.862; relative viability (Ponatinib + Pemetrexed; first compound 0.2 µM): 0.685
